This note sets out measurements from patent US20090209460A1, “COMPOSITIONS AND METHODS FOR TREATING OBESITY AND RELATED METABOLIC DISORDERS” (Amylin Pharmaceuticals, Inc., priority 2005, published 2009).

Series [1] is described as follows: brush border membrane (BBM) stability assay. The series is classed as in vitro ADME, human. The settings on record: for remaining at 5 h: brush border membrane extract (e.g. kidney), percent compound remaining after a 5 hour incubation, human brush border membrane assay, read-out: hBBM. As to the method:
Some exemplary NMX Peptides and FNX Peptides were tested for stability in a brush border membrane (BBM) assay as described herein. To determine the enzymatic stability of peptide hormones peptides are incubated with a preparation of human brush border membranes extract (e.g., kidney), and the stability of the peptide is determined by measuring concentration of the intact peptide at specific intervals. The brush border membrane extract contains dipeptidyl peptidase IV (DPP-IV), neutral endopeptidases, peptidyl-dipeptidase A, carboxypeptidases and aminopeptidases. These are the primary enzymes that degrade peptides in vivo and are found in the kidneys, liver, lungs and pancreas. Resistance against these human proteases would increase peptide half-life. In the BBM assay test peptide was subjected to digestion over a period of five (5) hours with human brush border membrane extracts, e.g. kidney, at 37° C. At desired timepoints digestion was stopped by addition of quench solution, typically 50% ACN, 1% FA. After centrifugation to remove membrane debris, supernatant was subjected to mass spectrometry using a selected ion scan for the intact molecule of interest. Values are expressed as a percent of stable. A value of at least 80 or greater is regarded as an extremely stable molecule. A value of at least 70 or greater is a molecule with significant stability.

Series [2] in a line: body weight and food intake in mice with diet induced obesity (mouse DIO), osmotic pump. Particulars: for d 14 BWt loss: day 14. In kind it is in vivo. Here is the method: The effect of FN38 and related compounds on body weight and food intake in obese subjects was investigated. Mice having diet induced obesity (DIO) were used. All in vivo tests were performed with peripheral injections of peptide. […] 4-week-old male C57BL/6 mice were group housed with water and a standard pelleted mouse chow diet available ad libitum, except as noted, and were maintained on a on a high fat diet (58% kcal from fat) for 4 weeks prior to the experiment. At the end of fattening period, osmotic pumps were implanted interscapularly under anesthesia. Mice received pumps continuously delivering vehicle (50% DMSO in water or saline) or polypeptide at the dose indicated. Food intake and body weight measurements were obtained weekly.

For a further series, the system named is NIH/Swiss mice. As to the kind of experiment: acute food intake assay, lean overnight-fasted NIH/Swiss mice, intraperitoneal injection. In kind it is in vivo, mouse. Particulars: for reduction of food intake: administered systemically (i.p. to mice), dose and time not stated; for FI (60′, 200) / ED50 at t = 60: food intake; for FI (60′, 200): % change relative to control, 60 min; for Food Intake Inhibition: mouse assay, dose of 200 mg/kg, measured at 60 minutes. As to the method:
The effect of NMX Peptides, FNX Peptides or NMX Receptor agonists on food intake when systemically administered was investigated using an acute food intake assay. This assay measured food consumption in lean subjects. Lean, group-housed, overnight-fasted NIH/Swiss mice. All in vivo tests were performed with peripheral injections of peptide. […] The dose-response data are presented herein. The protocol is described below. Female NIH/Swiss mice (8-24 weeks old) were group housed with a 12:12 hour light:dark cycle, with lights on at 0300. Water and a standard pelleted mouse chow diet are available ad libitum, except as noted. Animals are fasted starting at approximately 1530 hrs, 1 day prior to experiment. At time=0 min, all animals are given an intraperitoneal injection of vehicle or polypeptide in a volume of 200 uL/mouse and immediately given a pre-weighed amount (10-15 g) of the standard chow. Food is removed and weighed at 30, 60, and 120 minutes to determine the amount of food consumed. The effects of treatment on food intake are expressed as % change relative to control.

In series [3] the test system is mice with diet induced obesity (mouse DIO). The series can be described thus: cumulative food intake in mouse DIO after IP injection (FIGS. 6 and 7). The series is classed as in vivo. The settings on record: injected IP at t=0; measured at 30, 60, 120 and 180 min. Here is the method: The activities of the following compounds are shown: A, [MimicB36] FN38; B, [His37] FN38; C,
[His35] FN38; D, [Phe33] FN38; E, [Val33] FN38; F, Des-(Ser6,Lys7,Thr8,Gln9) FN38; G, Des-Val16,Val17-FN38; H, [Phe31] FN38; I, Des-(Val16,Val17,Phe24,Ala25,Ser26,Gln27) FN38; J, Des-(Phe1,Leu2,Phe3,His4)FN38; and K, Des-(Phe24,Ala25,Ser26,Gln27)-FN38. […] Points represent mean±sd of n=4 cages (3 mice/cage). Peptide was injected IP at t=0. Food was introduced immediately after injection and amount consumed measured at t=30, 60, 120, and 180 min. In the figure, * p<0.05 vs. vehicle control; ANOVA, Dunnett's test.

Non-standard residues stand in square brackets, D forms with d. Residues, ends and D or L forms follow the SMILES beside them. No end group written: not given here. beta turn mimic B = not defined here

As usually defined, the ED50 is the midpoint of the dose-response relation. Lower therefore signals an effect at a small dose. Consider `CC[C@H](C)[C@H](NC(=O)[C@@H](NC(=O)CNC(=O)CNC(=O)[C@@H]1CCCN1C(=O)[C@@H](NC(=O)[C@H](CCC(N)=O)NC(=O)[C@@H](NC(=O)[C@H](CCC(=O)O)NC(=O)[C@H](CCC(=O)O)NC(=O)[C@H](CC(=O)O)NC(=O)[C@H](CO)NC(=O)[C@H](CC(N)=O)NC(=O)[C@H](CO)NC(=O)[C@H](CCCCN)NC(=O)CNC(=O)[C@H](CC(C)C)NC(=O)[C@H](CCCCN)NC(=O)[C@H](CCC(N)=O)NC(=O)[C@@H](NC(=O)[C@H](CCCCN)NC(=O)[C@H](CO)NC(=O)[C@H](Cc1ccc(O)cc1)NC(=O)[C@H](Cc1c[nH]cn1)NC(=O)[C@H](Cc1ccccc1)NC(=O)[C@H](CC(C)C)NC(=O)[C@@H](N)Cc1ccccc1)[C@@H](C)O)C(C)C)C(C)C)C(C)C)C(=O)N[C@@H](CO)C(=O)N[C@@H](CC(N)=O)C(=O)NCC(=O)N[C@@H](Cc1ccc(O)cc1)C(=O)N[C@@H](Cc1ccccc1)C(=O)N[C@@H](CC(C)C)C(=O)N[C@@H](Cc1ccccc1)C(=O)N[C@@H](CCCNC(=N)N)C(=O)N1CCC[C@H]1C(=O)N[C@@H](CCCNC(=N)N)C(=O)N[C@@H](CC(N)=O)C(N)=O` [Compound 165063] (H-FLFHYSKTQKLGKSNSDEEVQVPGGVISNGYFLFRPRN-NH2; N-terminus assumed), for which the remaining at 5 h in series [1] was found to be 73%. Moreover, the BBM in series [1] (percent of stable, human brush border membrane extracts, five hours, 37° C.) was 73%. The “d 7 BWt loss” value in series [2] (mouse DIO, day 7) came to 5.1%. Further, the “d 14 BWt loss” value in series [2] (mouse DIO) is 8.6%. For the same compound, in the series on NIH/Swiss mice, the “reduction of food intake” value is reported as “at least 89%”; the “FI (60′, 200)” value is −88%; the “ED50 at t = 60” value is on record as 6 nmol/kg; the “Food Intake Inhibition” value is −88%.

Turning to `CC[C@H](C)[C@H](NC(=O)[C@@H](NC(=O)CNC(=O)CNC(=O)[C@@H]1CCCN1C(=O)[C@@H](NC(=O)[C@H](CCC(N)=O)NC(=O)[C@@H](NC(=O)[C@H](CCC(=O)O)NC(=O)[C@H](CCC(=O)O)NC(=O)[C@H](CC(=O)O)NC(=O)[C@@H](N)CO)C(C)C)C(C)C)C(C)C)C(=O)N[C@@H](CO)C(=O)N[C@@H](CC(N)=O)C(=O)NCC(=O)N[C@@H](Cc1ccc(O)cc1)C(=O)N[C@@H](Cc1ccccc1)C(=O)N[C@@H](CC(C)C)C(=O)N[C@@H](Cc1ccccc1)C(=O)N[C@@H](CCCNC(=N)N)C(=O)N1CCC[C@H]1C(=O)N[C@@H](CCCNC(=N)N)C(=O)N[C@@H](CC(N)=O)C(N)=O` [Compound 163452, reference compound] (H-SDEEVQVPGGVISNGYFLFRPRN-NH2; N-terminus assumed), the “body weight gain and food intake in the DIO assay” value in series [2] (75 nmol/kg/day) was “decreased body weight gain and food intake”. Further, in series [2] (mouse DIO), the “long acting effect in mouse DIO” value was “did not have a long acting effect” and the “d 14 BWt loss” value came to 1.5%. Further, in the series on NIH/Swiss mice, the “reduction of food intake” value is recorded as “up to 95%”; the “FI (60′, 200)” value is given as −88%; the “ED50 at t = 60” value is 0.022 mg/kg. Further, the “ED50 for effect on food intake” value with NIH/Swiss mice (over 30 min, i.p., mice) is reported as 9.0 nmol/kg.

With “FLFHYSKTQKLGKSNVVEELQSPFASQSRGYFLFR(beta turn mimic B)RN-NH2 (FLFHYSKTQKLGKSNVVEELQSPFASQSRGYFLFR[beta turn mimic B]RN-NH2; reading uncertain) [Compound A]”, in series [3], the “cumulative food intake in mouse DIO (FIGS. 6A, 6B, 7A, 7B)” value is “either not active or weakly active”.

`CC(C)C[C@H](NC(=O)[C@H](CCCCN)NC(=O)[C@H](CCC(N)=O)NC(=O)[C@@H](NC(=O)[C@H](CCCCN)NC(=O)[C@H](CO)NC(=O)[C@H](Cc1ccc(O)cc1)NC(=O)[C@H](Cc1c[nH]cn1)NC(=O)[C@H](Cc1ccccc1)NC(=O)[C@H](CC(C)C)NC(=O)[C@@H](N)Cc1ccccc1)[C@@H](C)O)C(=O)NCC(=O)N[C@@H](CCCCN)C(=O)N[C@@H](CO)C(=O)N[C@@H](CC(N)=O)C(=O)N[C@H](C(=O)N[C@H](C(=O)N[C@@H](CCC(=O)O)C(=O)N[C@@H](CCC(=O)O)C(=O)N[C@@H](CC(C)C)C(=O)N[C@@H](CCC(N)=O)C(=O)N[C@@H](CO)C(=O)N1CCC[C@H]1C(=O)N[C@@H](Cc1ccccc1)C(=O)N[C@@H](C)C(=O)N[C@@H](CO)C(=O)N[C@@H](CCC(N)=O)C(=O)N[C@@H](CO)C(=O)N[C@@H](CCCNC(=N)N)C(=O)NCC(=O)N[C@@H](Cc1ccc(O)cc1)C(=O)N[C@@H](Cc1ccccc1)C(=O)N[C@@H](CC(C)C)C(=O)N[C@@H](Cc1ccccc1)C(=O)N[C@@H](CCCNC(=N)N)C(=O)N1CCC[C@H]1C(=O)N[C@@H](Cc1c[nH]cn1)C(=O)N[C@@H](CC(N)=O)C(N)=O)C(C)C)C(C)C` [Compound B] (H-FLFHYSKTQKLGKSNVVEELQSPFASQSRGYFLFRPHN-NH2; N-terminus assumed): the “cumulative food intake in mouse DIO (FIGS. 6A, 6B, 7A, 7B)” value in series [3] is listed as “either not active or weakly active”.

For `CC(C)C[C@H](NC(=O)[C@H](CCCCN)NC(=O)[C@H](CCC(N)=O)NC(=O)[C@@H](NC(=O)[C@H](CCCCN)NC(=O)[C@H](CO)NC(=O)[C@H](Cc1ccc(O)cc1)NC(=O)[C@H](Cc1c[nH]cn1)NC(=O)[C@H](Cc1ccccc1)NC(=O)[C@H](CC(C)C)NC(=O)[C@@H](N)Cc1ccccc1)[C@@H](C)O)C(=O)NCC(=O)N[C@@H](CCCCN)C(=O)N[C@@H](CO)C(=O)N[C@@H](CC(N)=O)C(=O)N[C@@H](CCC(=O)O)C(=O)N[C@@H](CCC(=O)O)C(=O)N[C@@H](CC(C)C)C(=O)N[C@@H](CCC(N)=O)C(=O)N[C@@H](CO)C(=O)N1CCC[C@H]1C(=O)N[C@@H](CO)C(=O)N[C@@H](CCCNC(=N)N)C(=O)NCC(=O)N[C@@H](Cc1ccc(O)cc1)C(=O)N[C@@H](Cc1ccccc1)C(=O)N[C@@H](CC(C)C)C(=O)N[C@@H](Cc1ccccc1)C(=O)N[C@@H](CCCNC(=N)N)C(=O)N1CCC[C@H]1C(=O)N[C@@H](CCCNC(=N)N)C(=O)N[C@@H](CC(N)=O)C(N)=O` (H-FLFHYSKTQKLGKSNEELQSPSRGYFLFRPRN-NH2; N-terminus assumed), the remaining at 5 h in series [1] is 77%. Moreover, the “Food Intake Inhibition” value in the series with NIH/Swiss mice is on record as −79%.

As to `CC(C)C[C@H](NC(=O)[C@H](CCCCN)NC(=O)[C@H](CCC(N)=O)NC(=O)[C@@H](NC(=O)[C@H](CCCCN)NC(=O)[C@H](CO)NC(=O)[C@@H](N)Cc1ccc(O)cc1)[C@@H](C)O)C(=O)NCC(=O)N[C@@H](CCCCN)C(=O)N[C@@H](CO)C(=O)N[C@@H](CC(N)=O)C(=O)N[C@H](C(=O)N[C@H](C(=O)N[C@@H](CCC(=O)O)C(=O)N[C@@H](CCC(=O)O)C(=O)N[C@@H](CC(C)C)C(=O)N[C@@H](CCC(N)=O)C(=O)N[C@@H](CO)C(=O)N1CCC[C@H]1C(=O)N[C@@H](Cc1ccccc1)C(=O)N[C@@H](C)C(=O)N[C@@H](CO)C(=O)N[C@@H](CCC(N)=O)C(=O)N[C@@H](CO)C(=O)N[C@@H](CCCNC(=N)N)C(=O)NCC(=O)N[C@@H](Cc1ccc(O)cc1)C(=O)N[C@@H](Cc1ccccc1)C(=O)N[C@@H](CC(C)C)C(=O)N[C@@H](Cc1ccccc1)C(=O)N[C@@H](CCCNC(=N)N)C(=O)N1CCC[C@H]1C(=O)N[C@@H](CCCNC(=N)N)C(=O)N[C@@H](CC(N)=O)C(N)=O)C(C)C)C(C)C` [Des-(Phe1,Leu2,Phe3,His4)FN38] (H-YSKTQKLGKSNVVEELQSPFASQSRGYFLFRPRN-NH2; N-terminus assumed), the remaining at 5 h in series [1] is 41%. The “Food Intake Inhibition” value with NIH/Swiss mice is given as −58%.
